Measurements reported in a melting point compilation (Tetko et al.; mined from patent text by program, amines drawn as free bases though some values may be those of a salt).

Row | SMILES | melting point [°C]
1 | CCCN(c1c([O-])[c+](N(CCC)C2CC(C)(C)NC(C)(C)C2)[c+]1[O-])C1CC(C)(C)NC(C)(C)C1 | 198 to 199
2 | O=c1c(C(F)(F)F)cn(Cc2ccccc2)c(=O)n1CCCCl | 100 to 101
3 | O=C(O)Cc1ccc(NC(=O)C(CCc2ccccc2)NS(=O)(=O)c2ccc(Br)cc2)cc1 (racemic) | 155 to 160
4 | CC(C)NCCCCOc1ccc(O)cc1 | 91 to 93
5 | O=C(O)CCC(=O)c1cccc(C(F)(F)F)c1 | 80 to 82
6 | CCCCCCC(=O)OCCOC(=O)NC1(C(=O)O)CC1 | 113
7 | N#CCCCCCC(=NO)c1ccc(Cl)cc1 | 58 to 59
8 | C(=C\c1nc2ccccc2n1-c1nccs1)/c1ccccc1 | 99 to 99.5
9 | O=C(CCN1CCN(Cc2ccccc2)CC1)c1ccc2oc3ccccc3c2c1 | 135 to 136
10 | COc1ccc(S(=O)(=O)C2(C(=O)NO)CCN(Cc3ccc(F)cc3)CC2)cc1 | 176 to 178
11 | O=[N+]([O-])c1ccc(Sc2nccn2Cc2ccccc2)cc1 | 122 to 123
12 | O=C(Nc1ccc(Oc2ccnc(N3CCOCC3)n2)c2ccccc12)c1cc(F)cc(N2CCOCC2)c1 | 104 to 106
13 | C=C(c1ccccc1)c1ccc2nc(N)n(S(=O)(=O)N(C)C)c2c1 | 201 to 202
14 | Clc1cc(C(Cl)(Cl)Cl)c(Cl)cc1C(Cl)(Cl)Cl | 202 to 203
15 | O=C1NC2CCC(=O)N2[C@H]1Cc1ccccc1 (some centres not stated) | 141 to 145
16 | Cc1n[nH]c(C)c1CC1CC2c3cccc4[nH]cc(c34)CC2N(C)C1 (configuration not stated) | > 300
17 | CN=C(N)N(C)Cc1ccc(C2=NNC(=O)CC2C)cc1 (configuration not stated) | 190 to 192
18 | Brc1ccc2noc(-c3ccccc3)c2c1 | 113 to 116
19 | Nc1nc(-c2ccncc2)nc2c1c([N+](=O)[O-])nn2C1CCCC1 | 239 to 241
20 | O=C(NC1C(=O)Nc2ccccc2SC1c1ccccc1)OCc1ccccc1 (configuration not stated) | 246 to 248
21 | NCC1Cc2cc(-c3ccccc3)cc(-c3cc(Cl)ccc3Cl)c2O1 (configuration not stated) | 159 to 162

Row | SMILES | melting point [°C]
22 | CC=C1CCC2C3CCC4CC(O)CCC4(C)C3C(N)CC12C (configuration not stated) | 118 to 125
23 | O=C(O)CCSc1ccccc1CNC(=O)C1Cc2ccccc2N1S(=O)(=O)c1ccc(-c2cccc(C(F)(F)F)c2)cc1 (configuration not stated) | 85 to 89
24 | S=P12SP3(=S)SP(=S)(S1)SP(=S)(S2)S3 | 165 to 166
25 | Clc1nc(NCc2cccc(I)c2)c2ncn(C3CCCO3)c2n1 (configuration not stated) | 180 to 182
26 | O=C1Nc2ccccc2C12COc1ccc3c(c12)N(Cc1ncccc1C(F)(F)F)ON3 (configuration not stated) | 212 to 215
27 | C[C@@H]1CCC[C@H](C)N1Cc1ccc2cc(NC(=O)c3ccc(-c4ccc(Cl)cc4)nc3)ccc2c1 | 229 to 230
28 | CC(CCCc1cccnc1)NC(=O)C(O)c1ccccc1 (configuration not stated) | 144 to 146
29 | COc1ccccc1NC(=O)c1cccc(CO)c1 | 102
30 | COc1ccc(Cl)c(Oc2c(NS(=O)(=O)c3ccc(C(C)C)cn3)ncnc2OCCOC(=O)Nc2ccccn2)c1 | 190 to 191
31 | COc1ccc(-c2nc(-c3ccc(F)cc3)sc2-c2ccc(OC)cc2)cc1 | 140 to 142
32 | Cc1cccc2c3c(n(Cc4ccc(Cl)cc4)c12)C(CC(=O)O)CCC3 (single isomer, unassigned; (-)) | 196 to 198
33 | OCc1nn(-c2ccc(F)cc2)c2c1CCCC2 | 117 to 118
34 | Cc1ccc(C(=O)NC(Cc2ccccc2)NC(=S)Nc2cccc([N+](=O)[O-])c2)cc1 (configuration not stated) | 170 to 171
35 | Nc1cc(I)cnc1N | 109 to 111
36 | CCOC(=O)C1CCCCCCCC(=O)N1 (configuration not stated) | 101 to 103
37 | CC1CNCC1NC(=O)OC(C)(C)C (configuration not stated) | 86.8 to 87
38 | COc1ccc(C2CNC(=O)NC2)cc1OC(F)F | 215 to 216
39 | CC(c1ccc(N)cc1)n1ccnc1 (configuration not stated) | 130
40 | Cc1c(CCCCCCCC(=O)O)cccc1C(=O)c1ccc(Cl)cc1 | 70
41 | Cc1noc(-c2ncn3c2[C@@H]2CCCN2C(=O)c2cc(F)ccc2-3)n1 | 248 to 249
42 | C#CC1(O)CCC2C3CCC4=CC(=O)CCC4C3CCC21CCC (configuration not stated) | 149 to 150

The remaining lines, values ahead:

Row | melting point [°C] | SMILES
43 | 189 | COC(=O)c1ncc(C(=O)O)c2ccccc12
44 | > 300 | CC(C)(C)NC(=O)Nc1nc2nc(N)ncc2cc1-c1cccnc1
45 | 159 to 160 | CCSc1nc2c(C(=O)OC)sc(C)c2[nH]1
46 | 145 to 147 | Cc1nc2c(CN3CCOCC3)cc(Cl)nn2c1C(=O)c1ccc(Cl)cc1F
47 | 105 to 107 | CC=Cc1cccc2c(=O)c(C)c(-c3ccc(C(C)C)cc3)oc12
48 | 92 to 94 | CCCCCCCCNC(=O)Nc1sc(C(=O)OC(C)CCCCCC)c(C)c1C(=O)OC(C)(C)C (configuration not stated)
49 | 204 to 205 | CCCc1ccnc2c(=O)[nH]c(-c3cc(S(=O)(=O)N4CCC(C(=O)OCC)CC4)ccc3OCC)nc12
50 | 175 | Cc1ccc(C#Cc2ccc(NC(=O)OC(C)(C)C)c(N)c2)cc1
51 | 139 to 140 | CC(=O)N1N=C(c2ccc(NC(=O)CCl)cc2)c2cc3c(cc2CC1C)OCO3 (configuration not stated)
52 | 123 to 125 | CS(=O)(=O)c1ccc(Oc2cc3nc(-c4ccccc4)oc3cc2[N+](=O)[O-])cc1
53 | 169 to 172 | CC(=O)OC1CCC2(C)C(=CCC3C2CCC2(C)C(C(C)=O)=CCC32)C1 (configuration not stated)
54 | 135 to 137 | Cc1cccc(C)c1C(=O)N1C(=O)CN(c2ccccc2)C1=O
55 | 152 to 154 | COc1cc(C(=O)Nc2ccc(N3CCCC3)cc2C(C)=O)ccc1OCc1ccccc1
56 | 214 to 217 | CC(C)Cn1c(C(C)(C)O)nc2c(N)nc3ccccc3c21
57 | 232 to 235 | Cc1oc(C)c(C(=O)O)c1C(=O)O
58 | 140 to 141 | COc1cc(CO)ccc1OCc1nc(-c2cccc(OS(C)(=O)=O)c2)oc1C
59 | 99 to 101 | COc1cc(OC)nc(C(C(=O)O)C(C)C)n1 (configuration not stated)
60 | 308 to 312 | Cn1c(-c2cc(C(C)(C)C)c(O)c(C(C)(C)C)c2)n[nH]c1=O
61 | 106 to 108 | COc1ccc([C@@H]2Sc3ccccc3N(CCN(C)C)C(=O)[C@@H]2OC(=O)Nc2ccccc2)cc1 (relative stereo)
62 | 104 to 107 | Cc1ccc(N)c2nccc(Cl)c12
63 | 191 to 192 | Cc1c(C)c2c(c(C)c1NC=O)OC(C)(C)C2=O
64 | 45 to 46 | COc1cc(C)c(CCCCCCCCCCCCCCCC(=O)O)c(O)c1OC
65 | 168 to 170 | CSC[C@H](C)NC(=O)c1c(Cl)cccc1C(=O)Nc1ccc(Cn2c(C)nnc2C(F)(F)F)cc1C
66 | 198 to 200 | CC(=O)NCc1nc2c(N)nc3cccnc3c2n1CC(C)(C)O
67 | 183 to 184 | CC(C)CC(=O)Nc1c(C(=O)c2cc(Cl)ccn2)[nH]c2cc(Cl)ccc12
68 | 184 to 185 | CCC1(C)COP(=O)(Cc2ccc([N+](=O)[O-])cc2)OC1 (configuration not stated)
69 | 112 | COCC1(C)CCCOc2cc(C#Cc3ccc(C(=O)O)cc3)ccc21 (configuration not stated)
70 | 191 to 192 | CC(C)CNS(=O)(=O)c1ccc2c(c1)C=C(C(=O)O)C(C(F)(F)F)O2 (configuration not stated)
71 | 206 to 208 | O=C(O)CCN1C(=O)c2ccc([N+](=O)[O-])cc2C1=O
72 | 153 to 154 | CC(=O)Nc1cc(C)c([N+](=O)[O-])cn1
